Results from ChEMBL document CHEMBL2203066 (J Med Chem, 2012).
pIC50: −log10 of the molar value.

Target: Neuraminidase (Influenza A virus, UniProt Q6Q793)

SMILES | pIC50
CCOP(=O)(O)C1=C[C@@H](OC(CC)CC)[C@H](NC(C)=O)[C@@H](N)C1 [TAMIPHOSPHOR MONOETHYL ESTER] | 8.66
CCC(CC)O[C@@H]1C=C(P(=O)(O)O)C[C@H](NC(=N)N)[C@H]1NC(C)=O | 10.40
